Data as given in patent US8546323B2, “Thrombospondin-1 derived peptides and treatment methods” (priority 2005, dated 2013).
“Also recorded” adds a separate entry of the source. Blank lines part the entries; values can stand above or below the substance they belong to.

What was measured:
[1] = tested on: binding of TSP-1 to macrophages; experiment: cell adhesion assay: macrophage adhesion to TSP-1-coated wells, competition by peptides; type: cell-based, murine; settings: wells pre-plated with TSP-1 (40 microg./ml); cells mixed with peptide (0.01M) for 30 minutes
Description: For the peptide experiment, the cells were mixed in suspension with respective peptide (0.01M) for 30 minutes prior to being introduced to TSP-1 wells.
TSP-1 has multiple potential binding sites for binding macrophages including CD44, IAP, and CD36 (FIG. 1). However there has been no previously established β2-integrin binding motif described in TSP-1. A prior-study using phage sequence assays has reported that the peptide motif D(D/E)(G/L)W (SEQ ID NO: 7) competes with pro-MMP-9 binding to β2-integrin [40]. Through a sequence search of the complete TSP-1 peptide sequence we have determined that TSP-1 has two such putative β2 integrin binding sites: one in TSR-1-(DDGW (SEQ ID NO: 3), a perfect consensus) and another in TSR-2 (DGGW SEQ ID NO: 3), a close consensus with substitution in position 2) as shown in FIG. 2. We have used cell adhesion assay to assess binding of TSP-1 to macrophages (FIG. 6). Using this assay we have been able to show the impact of the D-Xaa-G-W (SEQ ID NO: 5) motif in TSP-1 adhesion to macrophages.

TGF-β1 [2] = settings: TSP-1 knockout mouse; cited from earlier work
atherosclerotic plaque [3] = experiment: peptide infusion (alzet pump) in TSP−/−ApoE−/− mice, atherosclerotic lesion composition; type: in vivo, mouse
Excerpt: Generally, “stabilized plaque” is evidenced by limited inflammation at the site of the lesion and/or significant fibrosis within the plaque. These features may be observed by a comparison a TSP-1 deficient control system such as the TSP−/− mice described above. Generally, stabilized plaque may be identified by a comparison of fibrosis and inflammation in treated and untreated animals. The balance between fibrosis and inflammation within the plaque has been a well accepted surrogate marker for propensity of plaque to rupture in multiple different animal models.

atherosclerotic plaque [4] = experiment: peptide infusion in apoE−/− mice, atherosclerotic plaque; type: in vivo, mouse
TGF-β1 [5] = biological target: T1, TGF-β1 (Mus musculus, UniProt P04202); experiment: synthetic peptide in tissue culture: TGF-β1 activation; type: cell-based
T1 construct: endogenous in cells; host or cells: Tissue culture
T1 sequence (P04202 30-278 limits assumed): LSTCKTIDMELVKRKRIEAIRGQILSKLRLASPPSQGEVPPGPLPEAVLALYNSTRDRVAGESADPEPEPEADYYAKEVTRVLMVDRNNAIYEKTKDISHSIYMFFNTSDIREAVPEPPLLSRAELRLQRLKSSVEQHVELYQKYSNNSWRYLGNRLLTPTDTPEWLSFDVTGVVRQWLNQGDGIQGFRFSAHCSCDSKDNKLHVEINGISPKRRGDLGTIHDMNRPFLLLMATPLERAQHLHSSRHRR
Excerpt: (§1) As such we have identified the two active sites in TSP-1 important for both (1) decreasing MMP-9 activity (2) and activating TGF-β1. Using this knowledge, many peptides having plaque stabilizing properties can be designed and synthesized. We designed and synthesized a representative synthetic sequence combining these two active sites: KRFKQDDGWSPWSEW (SEQ ID NO: 10).

MMP-9 [6] = experiment: synthetic peptide in tissue culture: inhibition of MMP-9 activation; type: cell-based
Excerpt: as §1

MMP-9 [7] = experiment: transient transfection of RAW macrophage cells, active MMP-9/total MMP-9 ELISA; type: cell-based, mouse; settings: RAW cells transiently transfected with TSP-1 or TSP-1 mutant; for mutants: fate of the TSP-1 effect
Excerpt: (§2) (A) There are two putative β2 integrin binding domain in TSR-1 and TSR-2. Note that these two binding domains are adjacent (and overlap by one amino acid) the two binding domains for TGF-β1. We have mutated the two DxGW motifs as shown in the box. […] This effect is abolished by TSP mutants: DM and less so by Mut1. […] This affect is abolished with both TSP-1 mutants Mut1 and Mut2. In summary the DxGW motif in TSR-1 and TSR-2 appear to mediate the effects on of TSP-1 on TGF-β1 activation and MMP-9 inhibition in this cell assay system.
We have shown TSP-1 binding, to macrophages through the same motif and we postulate one potential mechanism for TSP-1 inhibition, of MMP-9 activity may involve displacement of pro-MMP-9 from cell surface (FIG. 7) by competition for binding. To test this hypothesis we generated various mutants of TSP-1 involving either or both potential β2-intergin binding motif in TSP-1 (FIG. 2). […] This effect was reversed by mutation of the TSR-1 motif but less so with mutation of the TSR-2 motif.

TGF-β1 [8] = experiment: transient transfection of RAW macrophage cells, luciferase induction via TGF-β1 promoter responsive element; type: cell-based, mouse; settings: RAW cells transiently transfected with TSP-1 or TSP-1 mutant; cell lysate luciferase; for mutants: fate of the TSP-1 effect
Excerpt: as §2
Furthermore, using our mutants we have observed that WSPW (SEQ ID NO: 9) motif in TSR-2 is primarily responsible for TGF-β1 activation by TSP-1.

[9] = 8-25 μg per day for 5 weeks, versus untreated TSP−/− mice

Substance: ADGW
interference with macrophage adhesion to TSP-1 [1]: partial interference

Substance: DDGA (DGGW)
interference with macrophage adhesion to TSP-1 [1]: lack of interference

Substance: DDGW
interference with macrophage adhesion to TSP-1 [1]: sufficient to inhibit cell adhesion to TSP-1

Substance: KRFK
rescue of TSP-1 knockout phenotype (localized alveolar inflammation and chronic pneumonia) (TGF-β1 [2]): rescues this phenotype

ability to activate TGF-β1 (TGF-β1 [5]): activate TGF-β1
Substance: KRFKQDDGWSPWSEW
inflammation (macrophages) in the intimal lesion (atherosclerotic plaque [3]; [9]): decreased inflammation (macrophages) in the intimal lesion | lipid deposition within the intimal lesions (atherosclerotic plaque [3]; [9]): decreased lipid deposition within the intimal lesions | matrix (collagen and elastin) deposition within the lesion (atherosclerotic plaque [3]; [9]): increased matrix (as measured by collagen and elastin) deposition within the lesion | rescue of the phenotype of TSP−/−ApoE−/− mice (decrease macrophages, increase matrix within the lesion) (atherosclerotic plaque [3]; alzet infusion pump, 8-25 μg per day for 5 weeks): sufficient to rescue the phenotype | plaque stabilizing activity (atherosclerotic plaque [3]; mouse model of atherosclerosis): active in stabilizing plaque | plaque stabilization in presence of endogenous TSP-1 (atherosclerotic plaque [4]): beneficial effect | ability to inhibit activation of MMP-9 (MMP-9 [6]): inhibit activation of MMP-9

Substance: TSP-1: matricellular protein thrombospondin-1, a trimer with a chain molecular mass of 150 kda
MMP-9 activity (active MMP-9/total MMP-9), conversion of pro-MMP-9 to the active form (MMP-9 [7]): decreases MMP-9 activity; also recorded: decreased conversion of pro-MPP-9 to the active form | TGF-β1 activity (TGF-β1 [8]): increases TGF-β1 activity; also recorded: activates TGF-β1
